Data reported in PubChem BioAssay AID1918991 (Molecular Pharmacology Branch, DTP, NCI, 2023).
“And” between values parts separate entries of the source, which are not always exact repeats. Equal entries are not always repeated.

Tested on: 186277-243-T-J2-PDC complex spheroid growth
Test: Anticancer human tumor 186277-243-T-J2-PDC patient-derived colon adenocarcinoma cell line growth inhibition [AhR]
Conditions: for viability, T/C: stronger effect = lower value
Excerpt: Multicellular complex tumor spheroid response to aryl hydrocarbon receptor antagonists in combination with a variety of drugs and investigational agents in selected tumor cell lines
The current study was undertaken to assess response to aryl hydrocarbon receptor antagonists in combination with standard-of-care drugs and investigational agents in solid tumor complex spheroid models. Complex spheroids include a stromal component modeled by human endothelial cells (HUVEC) and fibroblasts modeled by human mesenchymal stem cells (MSCs). The concentration ranges selected for each drug and investigational agent were based upon clinically achievable concentrations if the clinical Cmax of the agent was known.
Compounds. The drugs and investigational agents: BAY 2416964 (NSC825713), GNF351 (NSC835774), CH-223191 (NSC835775), CPI-455 (NSC825282), aza-TdCyd (NSC777586), decitabine (NSC127716), belinostat (NSC758774), entinostat (NSC756642), pevonedistat (NSC761192), tazemetostat (NSC777109), talazoparib (NSC765396), olaparib (NSC753686), selinexor (NSC780203), nedisertib (M3814, NSC802822), bortezomib (NSC756655), venetoclax (NSC766270), doxorubicin (NSC123127), elimusertib (BAY189344, NSC800525), ceralasertib (AZD6738, NSC777638), TAK-243 (NSC785004), alisertib (NSC759677), etoposide (NSC141540), topotecan (NSC609699), eribulin (NSC707389), gemcitabine (NSC613327), carboplatin (NSC241240), cisplatin (NSC119875), and SN-38 (NSC673596) were obtained from the National Cancer Institute (NCI) Developmental Therapeutics Program Chemical Repository (32). The FDA-approved anticancer drug set is available from the Developmental Therapeutics Program at https://dtp.cancer.gov/organization/dscb/obtaining/available plates.htm. […] The stock solutions were prepared in dimethyl sulfoxide (DMSO, Sigma-Aldrich, St. Louis, MO, cat. D2650), except for the platinum compounds which were prepared in saline (Quality Biological, Gaithersburg, MD, cat. 114-055-101), at 800-fold the tested concentration and stored at -70 degrees C prior to their use. All drugs and investigational agents were tested over a range starting from a high concentration at or near the clinical Cmax and decreasing in half-log increments. If the clinical Cmax for an agent had not been determined, the highest concentration tested was 10 microM (Table 1).
Cell Culture. All cells were maintained in an incubator at 37 degrees C and 5% CO2 with 95% humidity. The PDC lines were cultured according to standard operating procedures established by the NCI PDMR (https://pdmr.cancer.gov). Briefly, all PDCs were thawed and cultured in Matrigel-coated flasks prepared with a working solution of 1X Ham's F-12 nutrient mix, without supplementation (Invitrogen, Waltham, MA, cat. 11765054), 100 U/mL penicillin-streptomycin (Invitrogen, cat. 15140122), and 2.5% Matrigel (Corning Inc., Corning, NY, cat. 354248) for the first three passages. All PDCs were cultured in complete DMEM/F-12 media containing advanced DMEM/F-12 (Invitrogen, cat. 12634028), 4.9% defined fetal bovine serum, heat inactivated (HyClone Laboratories Inc., Logan, UT, cat. SH30070.03HI), 389 ng/mL hydrocortisone (Sigma-Aldrich, cat. H4001), 9.7 ng/mL human EGF recombinant protein (Invitrogen, cat. PHG0313), 23.4 microg/mL adenine (Sigma-Aldrich, cat. A2786), 97.3 U/mL penicillin-streptomycin (Invitrogen, cat. 15140122), 1.9 mM L-glutamine (Invitrogen, cat. 25030081), and 9.7 microM Y-27632 dihydrochloride (Tocris Bioscience, Bristol, United Kingdom, cat. 1254). The PDCs were cultured in complete DMEM/F12 media without 10 microM Y-27632 dihydrochloride for at least two passages prior to the screen. The established cell lines NCI-H1341 and […] were cultured in DMEM/F-12, HEPES (Invitrogen, cat. 11330032), 5% defined fetal bovine serum (HyClone Laboratories Inc., cat. SH30070.03), ITS premix universal culture supplement [insulin (5 microg/mL), transferrin (5 microg/mL), and selenious acid (5 ng/mL)] […]
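Also: spheroids exposed to compounds for seven days before the viability read.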
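For viability, T/C in this document: luminescent signal used as a stand-in for viable cell amount; 100% = DMSO vehicle control wells.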

Row | IC50 (curve of compound) | SMILES | viability, T/C (compound 0.0316 µM) | viability, T/C (compound 0.1 µM) | viability, T/C (compound 0.316 µM) | viability, T/C (compound 1 µM) | viability, T/C (compound 3.16 µM) | viability, T/C (compound 10 µM) | further results
1 | 14.2 nM and 15.6 nM and 5.49 nM | CC(C)CC(NC(=O)C(Cc1ccccc1)NC(=O)c1cnccn1)B(O)O (centres undefined) |  |  |  |  |  |  | viability, T/C (compound 0.000949 µM): 106% and 98.7% and 108%; viability, T/C (compound 0.003 µM): 96.2% and 116% and 102%; viability, T/C (compound 0.03 µM): 0.39% and 1.22% and 0.15%; viability, T/C (compound 0.0949 µM): 0.17% and 1.7% and 0.16%; viability, T/C (compound 0.3 µM): 0.21% (2×) and 1.15%
2 | > 10000 nM | CC(C)c1c(-c2ccccc2)nc2c(C#N)c[nH]n2c1=O | 103% and 105% and 93.4% | 88.8% and 101% and 94.2% | 107% and 95.9% and 94.8% | 103% and 113% and 97.7% | 96.4% and 107% and 96.9% | 92% and 105% and 91.7% | 
3 |  | CC(CO)NC(=O)c1cc(-c2ccc(Cl)cc2)nn(-c2cnn(C)c2)c1=O (centres undefined) |  |  |  | 98.3% [middle of 21 runs] |  | 85.9% [middle of 19 runs] | IC50 (compound alone, run of 07/12/2022): > 10000 nM
4 | > 10000 nM and 7520 nM and 5330 nM | CC1(C)CCC(CN2CCN(c3ccc(C(=O)NS(=O)(=O)c4ccc(NCC5CCOCC5)c([N+](=O)[O-])c4)c(Oc4cnc5[nH]ccc5c4)c3)CC2)=C(c2ccc(Cl)cc2)C1 | 97.4% and 103% and 99.8% | 99.3% and 105% and 95.2% | 93.9% and 119% and 92.1% | 98.4% and 99.1% and 101% | 85.5% and 109% and 84.2% |  | 
5 | 80.6 nM and 81.6 nM and 23.5 nM | CC1COCCN1c1cc(-c2ccnn2C)c2ccnc(-c3ccn[nH]3)c2n1 (centres undefined) | 126% and 103% and 38.2% |  | 8.06% and 11.5% and 3.15% | 5.02% and 8.23% and 2.74% |  |  | viability, T/C (compound 0.00316 µM): 96.9% and 95.5% and 78.2%; viability, T/C (compound 0.01 µM): 94.7% and 106% and 89.9%
6 | 4450 nM and 2390 nM and 779 nM | CC1COCCN1c1cc(C2(S(C)(=N)=O)CC2)nc(-c2ccnc3[nH]ccc23)n1 (centres undefined) | 102% and 98.7% and 97.3% | 98% and 103% and 99% | 99.5% and 92% and 73% | 106% and 89.6% and 47.1% | 67.5% and 37.4% and 6.44% | 8.92% and 13.3% and 3.14% | 
7 | > 3000 nM | CCN(c1cc(-c2ccc(CN3CCOCC3)cc2)cc(C(=O)NCc2c(C)cc(C)[nH]c2=O)c1C)C1CCOCC1 |  |  |  |  |  |  | viability, T/C (compound 0.00949 µM): 107% and 112% and 86.8%; viability, T/C (compound 0.03 µM): 99.7% and 104% and 85%; viability, T/C (compound 0.0949 µM): 95.2% and 112% and 74.4%; viability, T/C (compound 0.3 µM): 98.2% and 109% and 93.8%; viability, T/C (compound 0.949 µM): 101% and 112% and 91.5%; viability, T/C (compound 3 µM): 106% and 104% and 89.5%
8 | > 100 nM and 19.6 nM | CC[C@@]1(O)C(=O)OCc2c1cc1n(c2=O)Cc2cc3c(CN(C)C)c(O)ccc3nc2-1 | 106% and 37% and 119% | 65.8% and 19.4% and 111% |  |  |  |  | viability, T/C (compound 0.000316 µM): 100% and 99.5% and 110%; viability, T/C (compound 0.001 µM): 94.2% and 104% and 99.4%; viability, T/C (compound 0.00316 µM): 104% and 95.7% and 114%; viability, T/C (compound 0.01 µM): 118% and 68.7% and 119%
9 |  | CCc1c2c(nc3ccc(O)cc13)-c1cc3c(c(=O)n1C2)COC(=O)[C@]3(O)CC |  |  |  |  |  |  | viability, T/C (compound 0.000949 µM): 118% and 125% and 49.3%; viability, T/C (compound 0.003 µM): 111% and 144% and 37.7%; viability, T/C (compound 0.00949 µM): 70.2% and 115% and 18.8%; viability, T/C (compound 0.03 µM): 49.7% and 83% and 17.6%; viability, T/C (compound 0.0949 µM): 29.7% and 43.6% and 10.7%; viability, T/C (compound 0.3 µM): 15.3% and 26.9% and 7.34%
10 |  | COc1cc(C2c3cc4c(cc3C(OC3OC5COC(C)OC5C(O)C3O)C3COC(=O)C23)OCO4)cc(OC)c1O (centres undefined) | 97.2% and 86.2% and 92.7% | 126% and 88.1% and 97.8% | 118% and 44.4% and 142% | 58.8% and 22.6% and 97.1% | 51.1% and 17.5% and 85.7% | 25.6% and 10% and 46.4% | 
11 |  | COc1cc(Nc2ncc3c(n2)-c2ccc(Cl)cc2C(c2c(F)cccc2OC)=NC3)ccc1C(=O)O | 95.8% and 121% and 27.3% | 83.4% and 121% and 22.3% | 74.4% and 119% and 20.1% | 69.7% and 114% and 18.9% | 79.1% and 117% and 22.9% | 81.5% and 123% and 25.9% | 
12 | 9190 nM and 8760 nM and 2560 nM | COc1ccc([C@@H](O)c2cc(-c3ncnc4cc(N5CCOCC5)ccc34)c(F)cc2Cl)nn1 | 103% and 94.6% and 86.8% | 101% and 91.5% and 90.4% | 115% and 102% and 95% | 107% and 95.6% and 69.3% | 108% and 87.9% and 46.4% | 45.4% and 44.9% and 16.3% | 
